# In patent publication US20170275666A1, “Methods for Preparing Rebaudioside I and Uses” (The Coca-Cola Company, priority 2014, published 2017):
# Residue numbers refer to the chain shown, from its start. Several values for one entry are separate records, joined by “and”; a condition that tells them apart may be missing. Equal values may be shown once.
# B1: UGT91D2: UDP-glucosyltransferase (Genbank ACE87855.1) produced in E. coli, tested as lysate (protein, UniProt B3VI56 1-473, looked up)
# UDP-glycosyltransferase 91D2: MATSDSIVDDRKQLHVATFPWLAFGHILPYLQLSKLIAEKGHKVSFLSTTRNIQRLSSHISPLINVVQLTLPRVQELPEDAEATTDVHPEDIPYLKKASDGLQPEVTRFLEQHSPDWIIYDYTHYWLPSIAASLGISRAHFSVTTPWAIAYMGPSADAMINGSDGRTTVEDLTTPPKWFPFPTKVCWRKHDLARLVPYKAPGISDGYRMGLVLKGSDCLLSKCYHEFGTQWLPLLETLHQVPVVPVGLLPPEVPGDEKDETWVSIKKWLDGKQKGSVVYVALGSEVLVSQTEVVELALGLELSGLPFVWAYRKPKGPAKSDSVELPDGFVERTRDRGLVWTSWAPQLRILSHESVCGFLTHCGSGSIVEGLMFGHPLIMLPIFGDQPLNARLLEDKQVGIEIPRNEEDGCLTKESVARSLRSVVVEKEGEIYKANARELSKIYNDTKVEKEYVSQFVDYLEKNTRAVAIDHES
# modifications: E. coli lysate
# notes: UDP-glucosyltransferase (Genbank ACE87855.1) produced in E. coli, tested as lysate
# B2: UGT76G1var91: UGT76G1 variant, mutations E224A_L246F_T263S_F265I_Q342K (protein, UniProt Q6VAB4 1-458, looked up, variant E224A L246F T263S F265I Q342K)
# UDP-glycosyltransferase 76G1: MENKTETTVRRRRRIILFPVPFQGHINPILQLANVLYSKGFSITIFHTNFNKPKTSNYPHFTFRFILDNDPQDERISNLPTHGPLAGMRIPIINEHGADELRRELELLMLASEEDEEVSCLITDALWYFAQSVADSLNLRRLVLMTSSLFNFHAHVSLPQFDELGYLDPDDKTRLEEQASGFPMLKVKDIKSAYSNWQILKEILGKMIKQTKASSGVIWNSFKALEESELETVIREIPAPSFLIPFPKHLTASSSSLLDHDRSVIQWLDQQPPSSVLYVSFGSTSEVDEKDFLEIARGLVDSKQSFLWVVRPGFVKGSTWVEPLPDGFLGERGRIVKWVPQKEVLAHGAIGAFWTHSGWNSTLESVCEGVPMIFSDFGLDQPLNARYMSDVLKVGVYLENGWERGEIANAIRRVMVDEEGEYIRQNARVLKQKADVSLMKGGSSYESLESLVSYISSL
# B3: UGT76G1var93: UGT76G1 variant, mutations I43V_Q266E_S375M_S389E_V394I (protein, UniProt Q6VAB4 1-458, looked up, variant I43V Q266E S375M S389E V394I)
# UDP-glycosyltransferase 76G1: B2 UDP-glycosyltransferase 76G1 with I43V, A224E, F246L, S263T, I265F, Q266E, K342Q, S375M, S389E, V394I
# B4: UGT76G1var95: UGT76G1 variant, mutations A33G_I295M_K303G_I335V_A385T (protein, UniProt Q6VAB4 1-458, looked up, variant A33G I295M K303G I335V A385T)
# UDP-glycosyltransferase 76G1: B2 UDP-glycosyltransferase 76G1 with A33G, A224E, F246L, S263T, I265F, I295M, K303G, I335V, K342Q, A385T
# B5: UGT76G1var96: UGT76G1 variant, mutations F22L_E229A_L243P_F377C_A385T (protein, UniProt Q6VAB4 1-458, looked up, variant F22L E229A L243P F377C A385T)
# UDP-glycosyltransferase 76G1: B2 UDP-glycosyltransferase 76G1 with F22L, A224E, E229A, L243P, F246L, S263T, I265F, K342Q, F377C, A385T
# B6: UGT76G1var7: UGT76G1 variant, mutations F22L_I43V_A239V (protein, UniProt Q6VAB4 1-458, looked up, variant F22L I43V A239V)
# UDP-glycosyltransferase 76G1: B2 UDP-glycosyltransferase 76G1 with F22L, I43V, A224E, A239V, F246L, S263T, I265F, K342Q
# B7: UGT76G1var92: UGT76G1 variant, mutations K303G_S357N_V366I_V394I_I407V (protein, UniProt Q6VAB4 1-458, looked up, variant K303G S357N V366I V394I I407V)
# UDP-glycosyltransferase 76G1: B2 UDP-glycosyltransferase 76G1 with A224E, F246L, S263T, I265F, K303G, K342Q, S357N, V366I, V394I, I407V
# What was measured:
# [1] = Taste properties of beverage formulations (flavored black tea, enhanced water, lemon-lime flavored sparkling beverage); type: in vivo
# Protocol: Reb I levels are evaluated in an zero calorie Lemon-lime-flavored sparking beverage base to determine the effect of increasing sweetness. Samples of the Lemon-lime-flavored sparkling beverage with Reb I in amounts between 400 and 750 ppm (in 50 ppm increments) and 3.5% allulose are prepared. […] Samples having 550 ppm and 600 ppm Reb I are found to be the closest in sweetness level to an 10.0 Brix HFCS sweetened Lemon-lime flavored sparkling beverage formulation.
# [2] = Sensory characteristics of rebaudioside I compared to rebaudioside M (taste panel); type: in vivo; conditions: 400 ppm in water, approximately 4° C., seven panelists
# Protocol: Rebaudioside I was evaluated to determine its sensory profile, including in comparison to rebaudioside M.
# Samples were prepared at a concentration of 400 ppm in a water matrix. Analysis to determine the actual concentration of the samples was preformed.
# Seven panelists participated in testing of rebaudioside I and rebaudioside M. Samples were served at approximately 4° C. Panelists were instructed to take 1 sip of the sample (10 mL), hold in mouth for 5 seconds, expectorate and rate the taste attributes, as described below. A 5 minute break was placed between each sample and panelist were instructed to cleanse their palates with at least 1 bite of an unsalted cracker and 2 sips of filtered water. Samples were randomized and each sample was present in replicate in the session.
# Attributes evaluated included: sweet taste intensity (maximum level of sweeteness in mouth during 5 seconds); bitter taste intensity (maximum level of bitterness in mouth during 5 seconds); overall maximum sweet intensity (maximum sweet intensity experienced from time sip is taken up to 1 minute); overall maximum bitter intensity (maximum bitter intensity experienced from time sip is taken up to 1 minute); other intensity (intensity of any taste, aromatic or mouth feel other than sweet and bitter (e.g., metallic, plastic, licorice, etc.); sweet linger intensity (sweet intensity 1 minute after expectoring the sample); and bitter aftertaste intensity (bitter intensity one minute after expectoring the sample).
# Fishers LSD was used to compare significant differences between the mean scores.
# [3] = Activity of in-vivo preparations of UGT91D2, transformation of Rubusoside to Stevioside; type: biochemical; conditions: per mL of lysate, 30° C., pH 7.2
# Protocol: Activity tests were performed at 5 mL scale with 1000 μL of lysate for the transformation of Rubusoside to Stevioside using 0.5 mM of substrate, 2.5 mM of UDP-Glucose and 3 mM MgCl2 in 50 mM Sodium Phosphate buffer at pH 7.2. Samples were taken and analyzed by HPLC.
# [4] = Directed evolution of UGT76G1, conversion of Rebaudioside D to Rebaudioside M (round 1); type: biochemical; conditions: 0.5 mM Rebaudioside D, 2.5 mM UDP-Glucose, 100 μL fresh lysate, 30° C., pH 7.2
# Outline: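 Conversion to Reb M and initial rate were measured by HPLC with CAD at 2, 4, 7 and 24 h, with reactions run at 30° C in 50 mM phosphate pH 7.2 containing 0.5 mM Reb D, 2.5 mM UDP-glucose and 3 mM MgCl2. Enzyme source: fresh lysates of E. coli BL21(DE3) expressing 3-5-mutation UGT76G1 variants.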
molecule,measurement,setting,value
C=C1C[C@@]23CC[C@H]4[C@@](C)(CCC[C@@]4(C)C(=O)OC4OC(CO)C(O)C(OC5OC(CO)C(O)C(O)C5O)C4O)[C@@H]2CCC1(OC1OC(CO)C(O)C(OC2OC(CO)C(O)C(O)C2O)C1OC1OC(CO)C(O)C(O)C1O)C3 (stereo partly shown) [Reb I],taste properties compared to Reb A drink,"[1]; flavored zero calorie black tea drink, 275 ppm",much cleaner in finish with less sweetness linger and a more rounded overall sweetness profile
same,Reb I concentration closest in sweetness level to 10.0 Brix HFCS sweetened Lemon-lime flavored sparkling beverage,[1]; zero calorie Lemon-lime-flavored sparkling beverage with 3.5% allulose,550 ppm and 600 ppm
same,taste compared to Reb A-containing formulations,"[1]; zero calorie Lemon-lime-flavored sparkling beverage, 400 to 750 ppm Reb I and 3.5% allulose",significantly better than comparable Reb A-containing formulations
same,taste properties compared to Reb A drink,"[1]; zero calorie enhanced water drink, 200 ppm",cleaner in finish and has a reduced sweetness linger and a more rounded overall sweetness taste quality
same,Bitter Aftertaste Intensity,[2],1.3
same,Bitter Taste Intensity,[2],1.4
same,Other Intensity,[2],1.3
same,Overall Max Bitterness Intensity,[2],2.1
same,Overall Max Sweetness Intensity,[2],7.2
same,Sweet Linger Intensity,[2],3.5
same,Sweet Taste Intensity,[2],5.9
same,Overall Max Sweetness Intensity,[2]; listed as Rebaudioside I,lower
same,Sweet Linger Intensity,[2]; listed as Rebaudioside I,lower
same,Sweet Taste Intensity,[2]; listed as Rebaudioside I,lower
"C=C1C[C@@]23CC[C@H]4[C@@](C)(CCC[C@@]4(C)C(=O)O[C@@H]4O[C@H](CO)[C@@H](O)[C@H](O[C@@H]5O[C@H](CO)[C@@H](O)[C@H](O)[C@H]5O)[C@H]4O[C@@H]4O[C@H](CO)[C@@H](O)[C@H](O)[C@H]4O)[C@@H]2CC[C@]1(O[C@@H]1O[C@H](CO)[C@@H](O)[C@H](O[C@@H]2O[C@H](CO)[C@@H](O)[C@H](O)[C@H]2O)[C@H]1O[C@@H]1O[C@H](CO)[C@@H](O)[C@H](O)[C@H]1O)C3 [Reb M, Rebaudioside M, reference compound]",Bitter Aftertaste Intensity,[2],0.8
same,Bitter Taste Intensity,[2],1.0
same,Other Intensity,[2],0.9
same,Overall Max Bitterness Intensity,[2],1.6
same,Overall Max Sweetness Intensity,[2],8.0
same,Sweet Linger Intensity,[2],4.9
same,Sweet Taste Intensity,[2],7.4
B1,Transformation activity Rubusoside to Stevioside,"[3]; plasmid pET30a+, expression strain ArcticExpress (DE3)",21 mU mL^−1
same,Transformation activity Rubusoside to Stevioside,"[3]; plasmid pET30a+, expression strain Tuner (DE3)",28 mU mL^−1
same,Transformation activity Rubusoside to Stevioside,"[3]; plasmid pMAL, expression strain ArcticExpress",60 mU mL^−1
same,Transformation activity Rubusoside to Stevioside,"[3]; plasmid pMAL, expression strain BL21",9 mU mL^−1
B2,Conversion Reb D to Reb M after 24 h (%),[4],1.2%
same,initial rate (Reb M area/min),[4],2.3E+05 Reb M area/min
B3,Conversion Reb D to Reb M after 24 h (%),[4],1.8%
same,initial rate (Reb M area/min),[4],4.5E+05 Reb M area/min
B4,Conversion Reb D to Reb M after 24 h (%),[4],−1.3%
same,initial rate (Reb M area/min),[4],−1.7E+05 Reb M area/min
B5,Conversion Reb D to Reb M after 24 h (%),[4],1.2%
same,initial rate (Reb M area/min),[4],2.7E+05 Reb M area/min
B6,Conversion Reb D to Reb M after 24 h (%),[4],0.2%
same,initial rate (Reb M area/min),[4],−6.0E+04 Reb M area/min
B7,Conversion Reb D to Reb M after 24 h (%),[4],1.6%
same,initial rate (Reb M area/min),[4],3.6E+05 Reb M area/min
